Assay results reported in PubChem BioAssay (NCI).
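Tested at 5 concentrations; 48 h exposure; 96-well plates; endpoints linearly interpolated, else capped at highest concentration. TGI marks complete inhibition of growth.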

Key:
Assay in all cases: growth of human tumour cells (NCI), 48 h
[1] = system: A498 renal
[2] = system: CAKI-1 renal
[3] = system: HT29 colon
[4] = system: IGROV1 ovarian
[5] = system: KM12 colon
[6] = system: MDA-N
[7] = system: MOLT-4 leukemia
[8] = system: NCI-H23 lung
[9] = system: OVCAR-4 ovarian
[10] = system: SF-295 CNS
[11] = system: SF-539 CNS
[12] = system: SK-MEL-28 melanoma
[13] = system: SK-OV-3 ovarian
[14] = system: U251 CNS
[15] = system: RPMI-8226 leukemia

| SMILES | TGI [1] [µM] | TGI [2] [µM] | TGI [3] [µM] | TGI [4] [µM] | TGI [5] [µM] | TGI [6] [µM] | TGI [7] [µM] | TGI [8] [µM] | TGI [9] [µM] | TGI [10] [µM] | TGI [11] [µM] | TGI [12] [µM] | TGI [13] [µM] | TGI [14] [µM] | TGI [15] [µM] |
| --- | --- | --- | --- | --- | --- | --- | --- | --- | --- | --- | --- | --- | --- | --- | --- |
| CCCn1c(=O)c(N2CCN(c3ccccc3)CC2)nc2sc3ccccc3c21 | > 100 | > 100 | > 100 | > 100 | > 100 | > 100 | > 100 | > 100 | > 100 | > 100 | > 100 | > 100 | > 100 | > 100 | – |
| CCN(CC)c1nnc(CCCCCCCCc2nnc(N(CC)CC)o2)o1 | > 100 | > 100 | > 100 | > 100 | > 100 | > 100 | > 100 | > 100 | > 100 | > 100 | > 100 | > 100 | > 100 | > 100 | – |
| COc1cc(Oc2nc3ccc(C(F)(F)F)cc3nc2-c2ccccc2)cc(OC)c1OC | > 100 | 17.3 | > 100 | > 100 | > 100 | > 100 | – | > 100 | 26.3 | 28.2 | 60.8 | > 100 | 33.4 | 28.5 | > 100 |
| OC(c1cccnc1Cl)c1nc2ccccc2c2ccnc(Cl)c12 (stereo not drawn) | 17.5 | > 100 | > 100 | > 100 | > 100 | 4.49 | > 100 | > 100 | > 100 | 9.75 | 12.4 | > 100 | 63.4 | > 100 | 8.57 |
| COc1ccc2c3c1O[C@H](c1ccc(O)cc1)[C@H]3[N+](C)(C)CC2 | > 100 | > 100 | > 100 | > 100 | > 100 | > 100 | > 100 | > 100 | > 100 | > 100 | > 100 | > 100 | > 100 | > 100 | > 100 |
| CN=C(Nc1cccc(C(F)(F)F)c1)SCc1ccc(N=C=S)cc1 | 34.6 | 30.4 | 31.2 | 32.8 | 29.3 | 28 | 36 | 31.4 | 26.8 | 30.2 | 31.5 | 48.9 | 34.5 | 29.8 | 45.8 |
| N#CCCC1(CCC#N)CCCCCCCCC(CCC#N)(CCC#N)C(O)C1O (stereo not drawn) | > 100 | > 100 | > 100 | > 100 | > 100 | > 100 | – | > 100 | > 100 | > 100 | 85.8 | > 100 | > 100 | > 100 | 58.2 |
| C=C1CC[C@@H](C)[C@](C)(CCc2ccoc2)C/C=C\C=C/1C(=O)O | > 100 | > 100 | > 100 | > 100 | > 100 | 66.1 | 95.8 | > 100 | > 100 | > 100 | 42.6 | 48.6 | > 100 | > 100 | – |
| CO/N=C1/c2sccc2[C@H](NC(=O)C(Cc2ccccc2)NC(=O)OC(C)(C)C)[C@@H]1O (stereo partly drawn) | > 100 | > 100 | > 100 | > 100 | – | > 100 | > 100 | > 100 | > 100 | > 100 | > 100 | > 100 | > 100 | > 100 | – |
| Cn1c(=O)n2n(c1=O)C(C)(C13CC4CC(CC(C4)C1)C3)C13CC4CC(CC1C4)CC23 (stereo not drawn) | > 100 | > 100 | > 100 | > 100 | > 100 | > 100 | > 100 | > 100 | – | > 100 | > 100 | > 100 | > 100 | > 100 | > 100 |
| COc1cc2c3c([nH]c2c(OC)c1OC)CCN(Cc1ccccc1)C3 | 72.3 | > 100 | 49.9 | > 100 | > 100 | 33.9 | > 100 | > 100 | > 100 | > 100 | 38.5 | 50.5 | – | 87.4 | 52.5 |
| Nc1nc2c(C(=O)O)c3ccc([N+](=O)[O-])cc3c(=O)n2c2ccccc12 | > 100 | > 100 | > 100 | 86.6 | > 100 | > 100 | > 100 | 64.9 | > 100 | 95.5 | – | > 100 | 74.1 | 92.9 | > 100 |
| C=CCOc1ccc(C2C(C(=O)OC)C(=O)CC(O)(c3ccccc3)C2C(=O)OC)cc1OC (stereo not drawn) | 76.4 | > 100 | > 100 | > 100 | > 100 | > 100 | > 100 | > 100 | 69.5 | > 100 | – | > 100 | – | > 100 | – |
| C[N+](C)(C)c1ncnc2c1ncn2C1CCCO1 (stereo not drawn) | > 100 | – | > 100 | > 100 | > 100 | > 100 | > 100 | > 100 | > 100 | > 100 | > 100 | > 100 | > 100 | > 100 | > 100 |
| CCN(CC)C1Oc2cc3c(cc2C(c2cccc(OC)c2OC)C1C)OCO3 (stereo not drawn) | 23.3 | 14.2 | 24.8 | 29.3 | 29.5 | 50.5 | 23.7 | 35.7 | – | 16.3 | 28.2 | 50.6 | 58.5 | 32 | 16.4 |
| CC(C)(CCC(C)(C)N1OC1c1ccccc1)N1OC1c1ccccc1 (stereo not drawn) | > 100 | 60.3 | > 100 | – | > 100 | > 100 | – | > 100 | > 100 | > 100 | > 100 | > 100 | > 100 | > 100 | 71.4 |
